The record followed here is PubChem BioAssay (NCI).

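Compound exposure: 48 hours, 5 concentrations, 96-well plates. GI50: concentration for 50% inhibition of growth. At the TGI there is no net growth.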

Test systems include SK-OV-3 ovarian; A549 NSCLC; K-562 leukemia; MOLT-4 leukemia; UO-31 renal; SK-MEL-28 melanoma; SN12C renal; DU-145 prostate; SR leukemia; T-47D breast.
Holding throughout (assay): inhibition of tumour cell growth, NCI panel, 48 h

For the molecule `CC1C(=O)CCC1C(Sc1ccccc1)(Sc1ccccc1)Sc1ccccc1` (stereo not drawn), the TGI with SK-OV-3 ovarian was above 100 µM; with A549 NSCLC, above 100 µM; in the experiment on K-562 leukemia, 80.5 µM; in the experiment on MOLT-4 leukemia it was 37.9 µM; in the experiment with UO-31 renal, 5.9 µM; with SK-MEL-28 melanoma it was above 100 µM. The same molecule showed a TGI in the experiment with SN12C renal of 91 µM.
As to `COC1OC(COCc2ccc(Cl)cc2)C(OCc2ccc(Cl)cc2)C1O` (stereo not drawn), the TGI was determined as 65.9 µM in the experiment with SK-OV-3 ovarian; 37.5 µM in the experiment with A549 NSCLC; 38.5 µM with K-562 leukemia; 66.6 µM in the experiment with MOLT-4 leukemia; 29.4 µM with UO-31 renal; 31.4 µM in the experiment on SK-MEL-28 melanoma. Also, the TGI with SN12C renal came out at 31.8 µM.
Take `Cc1ccccc1NC(=O)N/C(N)=N/c1nc2ccccc2s1`: the GI50 in the experiment on SK-OV-3 ovarian was 0.416 µM; in the experiment on DU-145 prostate, 0.0833 µM; with A549 NSCLC, 0.0871 µM; in the experiment with K-562 leukemia, 0.0327 µM; with MOLT-4 leukemia it was 0.0569 µM; with UO-31 renal it was 1.3 µM. In addition, the GI50 in the experiment with SK-MEL-28 melanoma is 3.37 µM; in the experiment on SR leukemia, 0.0392 µM; in the experiment with SN12C renal, 0.0853 µM. Also, the TGI with SK-OV-3 ovarian, in the experiment with DU-145 prostate, in the experiment with A549 NSCLC, in the experiment on K-562 leukemia, with MOLT-4 leukemia and with UO-31 renal was above 100 µM in each case. For the same molecule, the TGI with SK-MEL-28 melanoma, in the experiment with SR leukemia and with SN12C renal was above 100 µM each time.
With `CCCCCCCCCCCCCCCCc1c(C(=O)OC)[nH]c(=S)[nH]c1=O`, the TGI in the experiment on SK-OV-3 ovarian, in the experiment on A549 NSCLC, in the experiment with K-562 leukemia, in the experiment on MOLT-4 leukemia, in the experiment on UO-31 renal and with SK-MEL-28 melanoma was above 50 µM in each case. Further, the TGI was 32 µM in the experiment with SR leukemia and above 50 µM in the experiment on SN12C renal.
As for `CCCCCCCCC(=O)CCCCCCCCC(=O)O`, the TGI is above 100 µM in the experiment on SK-OV-3 ovarian; 45.2 µM with A549 NSCLC; 46.6 µM in the experiment on K-562 leukemia; 40.2 µM with MOLT-4 leukemia; 84.7 µM in the experiment on UO-31 renal; above 100 µM in the experiment on SK-MEL-28 melanoma. For the same molecule, the values for the TGI in the experiment with SR leukemia and in the experiment on SN12C renal were 42.5 µM and 76.2 µM, respectively.
With `CC1=C(C)C(=O)c2c(cc3c4ccccc4ccn23)C1=O`, the TGI with SK-OV-3 ovarian, in the experiment on A549 NSCLC, with K-562 leukemia, in the experiment on MOLT-4 leukemia, with UO-31 renal and in the experiment with SK-MEL-28 melanoma was above 100 µM each time. This molecule also returned a TGI in the experiment with SN12C renal above 100 µM.
Regarding `CC(=O)c1cc2c3c(c1)c1cc4c(cc1c(=O)n3CC2)OCO4`, the TGI in the experiment with SK-OV-3 ovarian was above 100 µM; with A549 NSCLC it was above 100 µM; with K-562 leukemia, above 100 µM; in the experiment on MOLT-4 leukemia, 9.92 µM; in the experiment on UO-31 renal, 38.6 µM; in the experiment with SK-MEL-28 melanoma, above 100 µM. Moreover, the TGI is 34.9 µM in the experiment with SR leukemia and above 100 µM in the experiment with SN12C renal.
With `COc1ccc(C2Cc3cc(OC)c(OC)c(OC)c3C2=O)cc1` (stereo not drawn), the TGI in the experiment with SK-OV-3 ovarian, in the experiment on A549 NSCLC, in the experiment with K-562 leukemia, with MOLT-4 leukemia, with UO-31 renal and in the experiment on SK-MEL-28 melanoma was above 100 µM in each case. The same molecule returned a TGI in the experiment with SN12C renal above 100 µM.
Turning to `COC(=O)C1C2CC3C(OC(=O)C31)C2I` (stereo not drawn), the TGI in the experiment on SK-OV-3 ovarian was above 100 µM; in the experiment on A549 NSCLC, above 100 µM; in the experiment with K-562 leukemia it was above 100 µM; in the experiment with MOLT-4 leukemia, above 100 µM; with UO-31 renal, above 100 µM; with SK-MEL-28 melanoma, above 10 µM. The TGI in the experiment with SR leukemia and with SN12C renal was above 100 µM each time.
On to `C=CCOC1=C2CC[C@H](O)[C@@]2(C)CCC1=O`, for which the TGI in the experiment with SK-OV-3 ovarian, in the experiment on A549 NSCLC, with MOLT-4 leukemia, in the experiment with UO-31 renal, in the experiment with SK-MEL-28 melanoma and in the experiment with SR leukemia was above 100 µM in each case. Further, the TGI with SN12C renal is above 100 µM.
Take `CCC1(O)C(=O)OCc2c1cc1n(c2=O)Cc2c-1nc1ccccc1c2OC` (stereo not drawn): the TGI with SK-OV-3 ovarian is 7.47 µM; in the experiment on A549 NSCLC, 1.85 µM; with K-562 leukemia, above 100 µM; in the experiment on MOLT-4 leukemia, below 0.0195 µM; in the experiment on UO-31 renal, 0.249 µM; in the experiment with SK-MEL-28 melanoma, above 53.8 µM. The same molecule gave a TGI with SR leukemia below 0.01 µM.
In the case of `CCOC(=O)/C(=C/c1cc(OC)ccc1OC)CC(=O)O`, the TGI is above 100 µM with SK-OV-3 ovarian; above 100 µM in the experiment on A549 NSCLC; above 31.6 µM in the experiment with K-562 leukemia; above 31.6 µM in the experiment on MOLT-4 leukemia; above 100 µM in the experiment with UO-31 renal; above 100 µM with SK-MEL-28 melanoma. Moreover, the TGI in the experiment with SR leukemia and in the experiment on SN12C renal was above 100 µM in each case.
Regarding `CC(=O)NC(ON1C(=O)COc2ccccc21)C(Cl)(Cl)Cl` (stereo not drawn), the TGI with SK-OV-3 ovarian, in the experiment with A549 NSCLC, with K-562 leukemia, in the experiment with MOLT-4 leukemia, with UO-31 renal and with SK-MEL-28 melanoma was above 100 µM in each case. Besides, the TGI in the experiment on SR leukemia and in the experiment with SN12C renal was above 100 µM throughout.
Take `COc1cc(-c2nn(C)nc2-c2cc3ccccc3s2)cc(OC)c1OC`: the GI50 was 0.311 µM in the experiment on SK-OV-3 ovarian; 0.263 µM in the experiment on DU-145 prostate; 0.169 µM with A549 NSCLC; 0.0428 µM with K-562 leukemia; 0.333 µM in the experiment with MOLT-4 leukemia; 0.744 µM in the experiment on UO-31 renal. The GI50 in the experiment on SK-MEL-28 melanoma is 13 µM; in the experiment on T-47D breast it was above 100 µM. Besides, the TGI with SK-OV-3 ovarian, in the experiment on DU-145 prostate, in the experiment with A549 NSCLC, with K-562 leukemia, in the experiment on MOLT-4 leukemia and in the experiment on UO-31 renal was above 100 µM in each case. Also, the TGI with SK-MEL-28 melanoma and in the experiment with T-47D breast was above 100 µM in each case.
Consider `NC1=NN(c2ccccc2)C(=O)C1C(=O)C(=O)NC1C2CC3CC(C2)CC1C3` (stereo not drawn), for which the TGI in the experiment on SK-OV-3 ovarian, with A549 NSCLC, with K-562 leukemia, in the experiment on MOLT-4 leukemia, in the experiment on UO-31 renal and in the experiment with SK-MEL-28 melanoma was above 100 µM each time. The TGI with SR leukemia and with SN12C renal was above 100 µM in each case.
Regarding `Cc1ccc(NC(=O)C2C(=O)C(=O)N(c3ccc(C)cc3)C2=O)cc1` (stereo not drawn), the TGI in the experiment with A549 NSCLC, in the experiment with K-562 leukemia, in the experiment on MOLT-4 leukemia, in the experiment on UO-31 renal, in the experiment with SR leukemia and in the experiment with SN12C renal was above 100 µM in each case.
